Measured values: PMC7688903 (Frontiers in Microbiology, 2020)
In brackets after ≈: the same amount, converted by molar mass. Entries after “also recorded” stand apart in the source; their conditions may differ. Where two headings read alike, the source gives them in different places. Where a SMILES comes first, the peptide text is derived from it. Where no end group is shown, it is not given here. [ ]: non-standard residue; d: D form. 2Thi = N[C@@H](Cc1cccs1)C(=O)O

Key:
RAW 264.7 cells = test: Cell viability assay (MTT); format: cell-based, mouse; details: 1–128 μM peptide in DMEM with 4% FBS, 42 h, 595 nm, triplicate
Protocol: The peptides were dissolved in ddH2O to a concentration of 256 μM. RAW 264.7 cells were cultured in 100 μL of DMEM containing 10% FBS and seeded at a density of 1 × 10^4 cells in a 96-well culture plate. The plate was incubated at 37°C under 5% CO2 atmosphere overnight. After attaining 80% confluency, the cells were treated with various concentrations of the peptides (1–128 μM) dissolved in DMEM containing 4% FBS for 42 h. Cytotoxicity was determined using the MTT tetrazolium reduction assay and quantified spectrophotometrically at 595 nm using a SpectraMax i3x microplate reader. The cell viability was calculated with respect to control samples treated only with DMEM containing 4% FBS ([Khara et al., 2016]). Each test was done in triplicate and the concentration required for 50% inhibition of viability (IC50) was determined.

S. aureus ATCC 25923 = test: microbe, parasite or virus in culture; format: cell-based, Staphylococcus aureus; details: ATCC 25923, 20 h
Protocol: (§1) The antimicrobial activities of the peptides were tested against E. coli ATCC 25922, P. aeruginosa ATCC 27853, carbapenem-resistant P. aeruginosa SIPI-012, A. baumannii ATCC 19606, carbapenem-resistant A. baumannii SIPI-025, S. aureus ATCC 25923, and C. albicans ATCC 10231. The minimum inhibitory concentration (MIC) values were determined using the microdilution method according to Clinical and Laboratory Standards Institute guidelines ([CLSI, 2008], [2012]). The peptides were dissolved in 10 mM PB to a concentration of 1280 μg/mL as stock solutions.
(§2) For inoculum preparation of bacteria, morphologically similar colonies selected from fresh MH agar plates were transferred using a loop into approximately 10 mL of MH broth in a capped test tube and vortexed. The suspension was adjusted with MH broth to achieve a turbidity equivalent to a 0.5 McFarland standard (BaSO4 solution prepared spectrophotometrically). A working suspension was prepared by making a 1:15 dilution followed by a 1:20 dilution of the stock suspension with MH broth medium to obtain approximately 5 × 10^5 CFU/mL. For inoculum preparation of yeast, five fresh colonies of approximately 1 mm diameter were picked from 24-hour-old cultures of C. albicans and suspended in 5 mL of sterile 0.85% saline. The resulting suspension was vortexed and the cell density was adjusted by adding sufficient sterile saline to achieve a turbidity equivalent to a 0.5 McFarland standard. A working suspension was prepared by making a 1:100 dilution followed by a 1:20 dilution of the stock suspension with RPMI 1640 broth medium to obtain 0.5 × 10^3 to 2.5 × 10^3 CFU/mL. Intermediate twofold dilutions of the peptides were prepared in MH broth and RPMI 1640 medium, and 90 μL aliquots were added to each well in addition to 10 μL of the inoculum prepared above.
(§3) Each plate included a growth control well and a sterility (uninoculated) control well. Colistin, vancomycin hydrochloride, and amphotericin B were used as positive controls for gram-negative bacteria, gram-positive bacteria, and fungi, respectively. The bacterial and fungal plates were incubated at 37°C for 20 h and 35°C for 48 h, respectively, both under ambient atmosphere. The inhibition of microbial growth was assessed visually. The MICs were determined from independent triplicate assays.

P. aeruginosa ATCC 27853 = format: cell-based, Pseudomonas aeruginosa; details: ATCC 27853, 20 h
Protocol: as §1, §2, §3

[1] = test system: carbapenem-resistant P. aeruginosa (CRPA) SIPI-012; format: cell-based, Pseudomonas aeruginosa; details: carbapenem-resistant (CRPA) SIPI-012, 20 h
Protocol: as §1, §2, §3

human plasma proteases = test: in vitro
human erythrocytes = test: Hemolytic activity assay; format: cell-based; details: human RBC in PB, 37°C, 1 h, OD420, total lysis control 0.1% SDS, three technical replicates
Protocol: Whole blood was obtained from a healthy volunteer. The red blood cells (RBC) were then centrifuged (800 × g, 10 min), washed twice with PB, resuspended in 1 mL of PB, and incubated with various concentrations of the peptides (32–128 μM) at 37°C for 1 h. As a positive control, total lysis of the RBC was accomplished by incubation with 0.1% SDS. For each condition, three technical replicates were performed. After incubation, the RBC were centrifuged at 800 × g for 10 min and the amount of hemoglobin released into the supernatant was determined by measuring the optical density OD420 using a SpectraMax i3x microplate reader (Molecular Devices) ([Zaet et al., 2017]).

C. albicans ATCC 10231 = test: microbe, parasite or virus in culture; format: cell-based, Candida albicans
Protocol: as §1, §2, §3

[2] = test system: proteases secreted by S. aureus ATCC 25923; test: in vitro
Protocol: The stabilities of the peptides toward proteases secreted by E. coli ATCC 25922, P. aeruginosa ATCC 27853, A. baumannii ATCC 19606, S. aureus ATCC 25923, and C. albicans ATCC 10231 were also examined. Microbial supernatants were prepared by resuspending single colonies of each strain in 20 mL of an appropriate culture medium followed by incubation at 37°C overnight. MH broth and 2% tryptone/2% dextrose were used as the culture media for bacteria and yeast, respectively. Each culture was then centrifuged at 12,000 × g for 10 min and the supernatant was adjusted to pH 8.0 with HCl or NaOH and then filtered through a 0.22 μm sterile filter membrane ([Zaet et al., 2017]). The peptides were then dissolved in the filtered supernatants to a concentration of 0.5 mg/mL, and the peptide-free supernatants were used as negative controls. The samples were incubated at 37°C for 24 h in a water bath and then analyzed by RP-HPLC as described above.

E. coli ATCC 25922 = format: cell-based, Escherichia coli; details: ATCC 25922, 20 h
Protocol: as §1, §2, §3

A. baumannii ATCC 19606 = format: cell-based, Acinetobacter baumannii; details: ATCC 19606, 20 h
Protocol: as §1, §2, §3

[3] = test system: carbapenem-resistant A. baumannii (CRAB) SIPI-025; format: cell-based, Acinetobacter baumannii; details: carbapenem-resistant (CRAB) SIPI-025, 20 h
Protocol: as §1, §2, §3

Trypsin = test: trypsin in 0.1 M NH4HCO3 buffer (pH 8.2); details: 37°C, up to 24 h

Row | Compound | IC50 (RAW 264.7 cells) | MIC (S. aureus ATCC 25923) | MIC (P. aeruginosa ATCC 27853) | MIC [1] | metabolised at 2 h, 0.1 mg/mL (human plasma proteases) | metabolised at 4 h, 0.1 mg/mL (human plasma proteases) | Hemolysis rate (%) (human erythrocytes; 64 μM) | Hemolysis rate (%) (human erythrocytes; 128 μM) | MIC (C. albicans ATCC 10231; ATCC 10231, 48 h) | remaining at 24 h, 0.5 mg/mL ([2]; Staphylococcus aureus, S. aureus ATCC 25923 culture supernatant, pH 8) | MIC (E. coli ATCC 25922) | MIC (A. baumannii ATCC 19606) | MIC [3] | Percent of remained peptide amount after incubation (%) ([2]; S. aureus ATCC 25923 culture supernatant (MH broth), pH 8.0, 0.22 μm filtered, peptide 0.5 mg/mL, 37°C, 24 h, RP-HPLC) | fragment found (Trypsin) | MIC (C. albicans ATCC 10231; Candida albicans, ATCC10231, C. albicans ATCC 10231, RPMI 1640, 35°C, 48 h, visual, independent triplicate assays, read-out: MIC)
1 | KRLFKRLFKYLRRF-NH2 [LP01] | 16.6 ± 3.79 µM | 1 µg/mL | 1 µg/mL | 4 µg/mL | > 40% | > 50% | 29.58 ± 0.83% | 37.14 ± 1.29 % | 4 µg/mL | 33.3 ± 5.69% | 2 µg/mL | 2 µg/mL | 2 µg/mL |  |  | 
2 | CC(C)C[C@H](NC(=O)[C@H](Cc1ccc(O)cc1)NC(=O)[C@H](CCCCN)NC(=O)[C@H](CC(C)C)NC(=O)[C@H](CC(C)C)NC(=O)[C@H](CCCCN)NC(=O)[C@H](CCCCN)NC(=O)[C@H](Cc1ccccc1)NC(=O)[C@H](CC(C)C)NC(=O)[C@H](CCCNC(=N)N)NC(=O)[C@@H](N)CCCCN)C(=O)N[C@@H](CCCNC(=N)N)C(=O)N[C@@H](CCCCN)C(=O)N[C@@H](Cc1cccs1)C(N)=O [UP08] (H-KRLFKKLLKYLRK[2Thi]-NH2) | 14.6 ± 2.96 µM | 1 µg/mL (≈ 0.53 µM) | 2 µg/mL (≈ 1.06 µM) | 4 µg/mL (≈ 2.12 µM) | > 40% | > 50% | 52.49 ± 2.25 % | 86.84 ± 1.24 % | 4 µg/mL (≈ 2.12 µM) |  | 2 µg/mL (≈ 1.06 µM) | 2 µg/mL (≈ 1.06 µM) | 2 µg/mL (≈ 1.06 µM) | 26.85 ± 2.61% |  | 
3 | krLFkkLLkYLrkF |  |  |  |  |  |  |  |  |  |  |  |  |  |  | krLFkkLLkYLr (k) 1–12, major, 18 h; also recorded: (r) LFkkLLkYLr (k) 3–12, major, 18 h | 
4 | C[C@@H]1[C@H](O)[C@@H](C)/C=C/C=C/C=C/C=C/C=C/C=C/C=C/[C@H](O[C@@H]2O[C@H](C)[C@@H](O)[C@H](N)[C@@H]2O)C[C@@H]2O[C@](O)(C[C@@H](O)C[C@@H](O)[C@H](O)CC[C@@H](O)C[C@@H](O)CC(=O)O[C@H]1C)C[C@H](O)[C@H]2C(=O)O [AmB, amphotericin B, reference compound] |  |  |  |  |  |  |  |  |  |  |  |  |  |  |  | 0.25 µg/mL (≈ 0.271 µM)
5 | KRLFkkLLKYLRkF |  |  |  |  |  |  |  |  |  |  |  |  |  |  | (k) kLLK (Y) 6–9, major, 18 h; also recorded: (K) YLR (k) 10–12, major, 18 h; also recorded: (K) YLRkF 10–14, major, 18 h; also recorded: (K) RLFk (k) 2–5, major, 18 h | 
